Counter-ions that a name gives are not always drawn. Like-named read-outs stand apart in the source and are kept apart here.
What was measured:
[1] = target: T1, human MCH1 receptor (Homo sapiens, UniProt Q99705); assay: Intracellular calcium response to MCH in COS-7 cells transfected with MCH1 (fluo-3, FLIPR): antagonist potency; assay type: cell-based; set-up: expressed in transfected cells; host or cells: COS-7; settings: read-out: Kb (nM) hMCH1
Description: MCH1 antagonist compounds were identified by their ability to inhibit the MCH-elicited response. […]. From the IC50 values, the antagonist potency (Kb)was derived using the Cheng-Prussof correction (Lazareno and Birdsall, 1993). […]

[2] = target: T2, human GALR1 receptor (Homo sapiens, UniProt P47211); assay: Binding affinity at the human GALR1 receptor; settings: read-out: hGALR1 Ki
T2 construct: expressed in transfected cells
T2 sequence (P47211 1-349): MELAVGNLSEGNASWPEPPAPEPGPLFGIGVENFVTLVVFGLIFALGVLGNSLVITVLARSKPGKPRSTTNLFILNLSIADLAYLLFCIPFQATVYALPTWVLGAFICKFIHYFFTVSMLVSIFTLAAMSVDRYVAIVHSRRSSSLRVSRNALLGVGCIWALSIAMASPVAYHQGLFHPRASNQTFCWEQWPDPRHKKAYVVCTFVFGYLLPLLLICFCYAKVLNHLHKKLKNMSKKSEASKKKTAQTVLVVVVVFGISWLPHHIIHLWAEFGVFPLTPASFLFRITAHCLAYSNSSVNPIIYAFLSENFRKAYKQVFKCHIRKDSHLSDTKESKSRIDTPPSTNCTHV
Description: (§1) The design of such compounds can be optimized by determining their binding affinity at the recombinant MCH1, NPY1, NPY2, Gal1, Gal2, Gal3, and 5HT2C receptors. The methods to obtain the cDNA of the receptor, express said receptors in heterologous systems, and carry out assays to determine binding affinity are described in the following publications: human NPY1 (Larhammar et al., 1992), human NPY5 (U.S. Pat. No. 5,602,024, the disclosure of which is hereby incorporated by reference in its entirety into this application), human Gall (Habert-Ortoli et al., 1994), human Gal2 (Smith et al., 1997), human Gal3 (Smith et al., 1998), and rat 5HT2C (Julius et al., 1988). Additionally, the compounds would optimally not bind at the following receptors due to possible side effects: human H1 histamine and human H2 histamine receptors; human alpha-1A adrenergic, human alpha-1D adrenergic, human alpha-2A adrenergic, human alpha-2B adrenergic, and human alpha-2C adrenergic receptors; human dopamine D1, D2, D3, D4, and D5 receptors; the β-adrenoceptor; and the human 5HT1A, human 5HT1B, human 5HT1D, human 5HT1E, human 5HT1F, human 5HT2A, rat 5HT2C, human 5HT4, human 5HT6, and human 5HT7 receptors.

[3] = target: T3, human GALR2 receptor (Homo sapiens, UniProt O43603); assay: Binding affinity at the human GALR2 receptor; settings: read-out: hGALR2 Ki
T3 construct: expressed in transfected cells
T3 sequence (O43603 1-387): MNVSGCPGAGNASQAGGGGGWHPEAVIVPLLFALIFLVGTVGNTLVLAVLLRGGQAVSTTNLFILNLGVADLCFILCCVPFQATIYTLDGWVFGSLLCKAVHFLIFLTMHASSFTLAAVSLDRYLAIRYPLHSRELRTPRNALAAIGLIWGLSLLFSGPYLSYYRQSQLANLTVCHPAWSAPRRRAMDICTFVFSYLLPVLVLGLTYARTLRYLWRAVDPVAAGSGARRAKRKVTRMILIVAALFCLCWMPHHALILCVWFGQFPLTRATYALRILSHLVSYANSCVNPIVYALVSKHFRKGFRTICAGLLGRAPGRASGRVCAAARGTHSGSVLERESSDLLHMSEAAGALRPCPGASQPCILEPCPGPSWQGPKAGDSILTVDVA
Description: as §1

[4] = target: T4, human GALR3 receptor (Homo sapiens, UniProt O60755); assay: Binding affinity at the human GALR3 receptor; settings: read-out: hGALR3 Ki
T4 construct: expressed in transfected cells
T4 sequence (O60755 1-368): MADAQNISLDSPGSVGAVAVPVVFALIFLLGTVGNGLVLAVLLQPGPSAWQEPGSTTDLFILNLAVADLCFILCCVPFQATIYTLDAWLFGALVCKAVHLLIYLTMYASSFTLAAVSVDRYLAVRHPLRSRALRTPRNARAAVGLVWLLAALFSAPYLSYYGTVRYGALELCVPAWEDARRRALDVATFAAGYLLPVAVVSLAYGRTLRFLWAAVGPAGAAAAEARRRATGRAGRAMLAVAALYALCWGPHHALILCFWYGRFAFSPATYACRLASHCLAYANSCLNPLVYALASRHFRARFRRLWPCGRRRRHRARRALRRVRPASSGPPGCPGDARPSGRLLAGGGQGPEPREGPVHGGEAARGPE
Description: as §1

[5] = target: T5, rat 5HT2C receptor (Rattus norvegicus, UniProt P08909); assay: Binding affinity at the rat 5HT2C receptor; settings: read-out: r5HT2C Ki
T5 construct: expressed in transfected cells
T5 sequence (P08909 33-460): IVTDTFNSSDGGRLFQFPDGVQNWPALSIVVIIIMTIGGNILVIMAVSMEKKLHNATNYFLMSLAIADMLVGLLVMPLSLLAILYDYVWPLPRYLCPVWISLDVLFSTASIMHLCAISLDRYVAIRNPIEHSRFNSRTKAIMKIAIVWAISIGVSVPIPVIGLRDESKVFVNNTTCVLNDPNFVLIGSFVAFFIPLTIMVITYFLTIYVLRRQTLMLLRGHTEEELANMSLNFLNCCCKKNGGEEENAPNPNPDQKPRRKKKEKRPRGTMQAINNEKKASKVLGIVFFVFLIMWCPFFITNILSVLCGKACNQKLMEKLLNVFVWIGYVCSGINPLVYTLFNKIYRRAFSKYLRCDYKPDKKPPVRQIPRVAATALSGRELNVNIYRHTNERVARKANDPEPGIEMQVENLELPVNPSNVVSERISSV
Description: as §1
Other 5HT Receptors: Other serotonin receptor binding assays were performed according to published methods: rat 5HT2C receptor (Julius et al., 1988); and 5HT6 (Monsma, et al., 1993). The binding assays using the 5HT4 receptor were performed according to the procedures described in U.S. Pat. No. 5,766,879, the disclosure of which is hereby incorporated by reference in its entirety into this application.

[6] = target: T1, human MCH1 receptor; assay: Competition binding, membrane preparations of A293 cells expressing the human MCH1 receptor, [3H] Compound 10 as radioligand; set-up: expressed in transfected cells; settings: Table 3b; A293 cell membranes, [3H] Compound 10; read-out: hMCH1* Ki
Description: TRITIATED METHYL (4S)-3-{[(3-{4-[3-(ACETYLAMINO)PHENYL]-1-[…]}PROPYL)AMINO]CARBONYL}-4-(3,4-DIFLUOROPHENYL)-6-(METHOXYMETHYL)-2-OXO-1,2,3,4-TETRAHYDRO-5-PYRIMIDINECARBOXYLATE ([^3H] COMPOUND 10): This radiochemical synthesis was carried out by Amersham Pharmacia Biotech, Cardiff, Wales. A methanolic solution of methyl (4S)-3-({[3-(4-[3-(acetylamino)phenyl]-3,6-dihydro-1(2H)pyridinyl)propyl]amino}carbonyl)-4-(3,4-difluorophenyl)-6-(methoxymethyl)-2-oxo-1,2,3,4-tetrahydro-5-pyrimidinecarboxylate was exposed to tritium gas at 1 atmosphere pressure in the presence of 5% palladium on carbon with stirring overnight to give the tritiated methyl (4S)-3-{[(3-{4-[3-(acetylamino)phenyl]-1-piperidinyl}propyl)amino]carbonyl}-4-(3,4-difluorophenyl)-6-(methoxymethyl)-2-oxo-1,2,3,4-tetrahydro-5-pyrimidinecarboxylate ((+)-isomer) After purification by reverse phase HPLC (Hypersil ODS, 4.6×100 mm, methanol:H2O:Et3N 10:90:1 to 100:0:1 in 15 min at 1.0 mL/min, with radiochemical and UV detection), this product was used as a radioligand in the MCH1 binding assays. The same procedure was carried out with H2 gas in place of ^3H2 to afford the non-radioactive version of Compound 10.

T1 sequence (Q99705 whole entry): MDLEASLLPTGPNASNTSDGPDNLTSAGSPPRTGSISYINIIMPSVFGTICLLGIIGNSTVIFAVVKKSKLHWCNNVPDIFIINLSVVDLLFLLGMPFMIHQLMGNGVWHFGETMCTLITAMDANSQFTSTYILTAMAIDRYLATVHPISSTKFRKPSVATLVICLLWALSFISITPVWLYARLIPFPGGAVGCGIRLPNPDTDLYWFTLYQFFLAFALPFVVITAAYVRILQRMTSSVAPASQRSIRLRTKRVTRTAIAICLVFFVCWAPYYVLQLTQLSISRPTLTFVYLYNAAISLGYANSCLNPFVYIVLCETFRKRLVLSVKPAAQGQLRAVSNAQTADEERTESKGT

Structure (SMILES)	melting point [°C]	other results
O=C(CCCN1CCC(NC(=O)c2ccccc2)CC1)c1ccc(Cl)cc1 (as salt: HCl) [Example 28, [3-(4-CHLOROBENZOYL)]PROPYL-4-BENZAMIDOPIPERIDINE]	243 to 244	–
COC(=O)C1=C(C)NC(=O)N(C(=O)NCCCN2CCC3(CC2)OCc2ccccc23)C1c1ccc(F)c(F)c1 (stereo not shown) (as salt: hydrochloride) [Example 20, 4-(3,4-DIFLUORPHENYL)-6-METHYL-2-OXO-3-{[3-(4-SPIRO[ISOBENZOFURAN-1(3H),4′-PIPERIDINE]PROPYL}-1,2,3,4-TETRAHYDROPYRIMIDINE-5-CARBOXYLIC ACID METHYL ESTER]	178 to 182	–
COC(=O)C1=C(C)NC(=O)N(C(=O)NCCCN2CCC3(CCc4ccccc43)CC2)C1c1ccc2nonc2c1 (racemic) (as salt: hydrochloride) [Example 21]	155 to 157	–
COC(=O)C1=C(C)NC(=O)N(C(=O)NCCCN2CCC3(CC2)OCc2ccccc23)C1c1ccc2nonc2c1 (single isomer, unassigned) (as salt: hydrochloride) [Example 18]	180 to 182	–
COCC1=C(C(=O)OC)C(c2ccc(F)c(F)c2)N(C(=O)NCCCN2CCC(O)(c3ncccc3C)CC2)C(=O)N1 (single isomer, unassigned; (+)) [Example 16, (+)-1,2,3,6-TETRAHYDRO-1-{N-[4-HYDROXY-4-(2-PYRIDYL)-PIPERIDIN-1-YL]PROPYL}CARBOXAMIDO-4-METHOXYMETHYL-6-(3,4-DIFLUOROPHENYL)-2-OXOPYRIMIDINE-5-CARBOXYLIC ACID METHYL ESTER]	132 to 135	Kb [1]: 329 nM
COCC1=C(C(=O)OC)C(c2ccc(F)c(F)c2)N(C(=O)NCCCN2CC=C(c3cccc(NC(C)=O)c3)CC2)C(=O)N1 (stereo not shown) [Example 2, METHYL 3-[(3-4-[3-(ACETYLAMINO)PHENYL]-1,2,3,6-TETRAHYDRO-1-PYR-IDINYLPROPYL)AMINO]CARBONYL-4-(3,4-DIFLUOROPHENYL)-6-(METHOXY-METHYL)-2-OXO-1,2,3,4-TETRAHYDRO-5-PYRIMIDINECARBOXYLATE]	–	Ki ([2]; Table 3a): > 50 µM; Ki ([2]; Table 3b): > 50 µM; Ki ([3]; Table 3a): > 50 µM; Ki ([3]; Table 3b): > 50 µM; Ki ([4]; Table 3a): > 50 µM; Ki ([4]; Table 3b): > 50 µM; Ki ([5]; Table 3a): 39.8 µM; Ki ([5]; Table 3b): 39.8 µM; Ki [6]: 49 nM
O=C(NC1CCN(CCC2CCc3ccccc3C2=O)CC1)c1ccccc1 (stereo not shown) [Example 5]	158 to 159	–

Continued, in another order:

melting point [°C]	Structure (SMILES)	other results
82 to 84	COCC1=C(C(=O)OC)C(c2ccc(F)c(F)c2)N(C(=O)NCCCN2CCC(OC(C)=O)(c3ccccc3)CC2)C(=O)N1 (stereo not shown) (as salt: hydrochloride) [Example 3, (1)-1,2,3,6-TETRAHYDRO-1-{N-[3-(4-O-ACETYL)-4-PHENYLPIPERIDIN-1-YL]PROPYL}CARBOXAMIDO-5-METHOXYCARBONYL-4-METHOXYMETHYL-6-(3,4-DIFLUOROPHENYL)-2-OXOPYRIMIDINE]	–
66 to 71	COC(=O)C1=C(C)NC(=O)N(C(=O)NCCCN2CCN(c3ccccc3C)CC2)C1c1ccc(F)c(F)c1 (stereo not shown) (as salt: hydrochloride) [Example 35, 1,2,3,6-TETRAHYDRO-1{N-[4-(2′-METHYL-PHENYL)PIPERAZIN-1-YL]-PROPYL}-CARBOXAMIDO-4-METHYL-6-(3,4-DIFLUOROPHENYL)-2-OXO-PYRIMIDINE]	–
150 to 153	COC(=O)C1=C(C)NC(=O)N(C(=O)NCCCN2CCN(c3ccccc3[N+](=O)[O-])C[C@@H]2C)C1c1ccc(F)c(F)c1 (single isomer, unassigned; (+)) (as salt: HCl) [Example 34]	–
80 to 84	COCC1=C(C(=O)OC)C(c2ccc(F)c(F)c2)N(C(=O)NCCCN2CCC(c3cccc(OC)c3)CC2)C(=O)N1 (single isomer, unassigned; (+)) [Example 9, (+)-1,2,3,6-TETRAHYDRO-1-N-[4-(3-METHOXY)-PHENYL}-PIPERIDIN-1-YL]-PROPYL-CARBOXAMIDO-4-METHOXYMETHYL-6-(3,4-DIFLUOROPHENYL)-2-OXOPYRIMIDINE-5-CARBOXYLIC ACID METHYL ESTER]	Kb [1]: 35 nM
150 to 153	COC(=O)C1=C(C)NC(=O)N(C(=O)NCCCN2CCC3(CCc4ccccc43)CC2)C1c1ccc(F)c(F)c1 (stereo not shown) [Example 32]	–

Source: patent publication US20040038855A1 (priority 1999, published 2004)
